Converted amounts (≈) assume the structure as drawn.
Key:
Klebsiella pneumoniae = assay: Antibacterial activity against Klebsiella pneumoniae 2011E by M07-A9 CLSI method; type: functional
Salmonella typhimurium = assay: Antibacterial activity against Salmonella typhimurium ATCC 13311 by M07-A9 CLSI method; type: functional, Salmonella enterica subsp. enterica serovar Typhimurium; details: Salmonella enterica
Staphylococcus aureus [1] = assay: Antibacterial activity against Staphylococcus aureus Giorgio by M07-A9 CLSI method; type: functional
Bacillus licheniformis = assay: Antibacterial activity against Bacillus licheniformis EMR by M07-A9 CLSI method; type: functional
Enterococcus faecalis = assay: Antibacterial activity against Enterococcus faecalis ATCC 29212 by M07-A9 CLSI method; type: functional
Kocuria rhizophila = assay: Antibacterial activity against Micrococcus luteus ATCC 9341 by M07-A9 CLSI method; type: functional
Proteus vulgaris = assay: Antibacterial activity against Proteus vulgaris 6059 by M07-A9 CLSI method; type: functional
Klebsiella aerogenes = assay: Antibacterial activity against Klebsiella aerogenes (SHV-1) 1976E by M07-A9 CLSI method; type: functional
Pseudomonas aeruginosa = assay: Antibacterial activity against Pseudomonas aeruginosa 6065Y by M07-A9 CLSI method; type: functional
Bacillus subtilis = assay: Antibacterial activity against Bacillus subtilis ATCC 6633 by M07-A9 CLSI method; type: functional
Staphylococcus aureus [2] = assay: Antibacterial activity against Staphylococcus aureus ATCC 25923 by M07-A9 CLSI method; type: functional
Staphylococcus aureus [3] = assay: Antibacterial activity against Staphylococcus aureus ATCC 6538P by M07-A9 CLSI method; type: functional
Staphylococcus aureus [4] = assay: Antibacterial activity against Staphylococcus aureus 241 by M07-A9 CLSI method; type: functional
Bacillus cereus = assay: Antibacterial activity against Bacillus cereus ATCC 27348 by M07-A9 CLSI method; type: functional
Staphylococcus aureus [5] = assay: Antibacterial activity against Staphylococcus aureus 77 by M07-A9 CLSI method; type: functional
Escherichia coli = assay: Antibacterial activity against Escherichia coli ATCC 25922 by M07-A9 CLSI method; type: functional
[6] = tested on: Staphylococcus epidermidis; assay: Antibacterial activity against Staphylococcus epidermidis 887E by M07-A9 CLSI method; type: functional

Structure (SMILES) | MIC (Klebsiella pneumoniae) | MIC (Salmonella typhimurium) | MIC (Staphylococcus aureus [1]) | MIC (Bacillus licheniformis) | MIC (Enterococcus faecalis) | MIC (Kocuria rhizophila) | MIC (Proteus vulgaris) | MIC (Klebsiella aerogenes) | MIC (Pseudomonas aeruginosa) | MIC (Bacillus subtilis) | MIC (Staphylococcus aureus [2]) | MIC (Staphylococcus aureus [3]) | MIC (Staphylococcus aureus [4]) | MIC (Bacillus cereus) | MIC (Staphylococcus aureus [5]) | MIC (Escherichia coli) | MIC [6]
CC(C)CCC[C@@H](C)[C@H]1CC[C@H]2[C@@H]3C(=O)C[C@H]4C[C@H](NCCc5cnc[nH]5)CC[C@]4(C)[C@H]3CC[C@]12C | > 32 µg/mL | > 32 µg/mL | 16 µg/mL (≈ 32.3 µM) | 32 µg/mL (≈ 64.5 µM) | 16 µg/mL (≈ 32.3 µM) | 16 µg/mL (≈ 32.3 µM) | > 32 µg/mL | > 32 µg/mL | > 32 µg/mL | 32 µg/mL (≈ 64.5 µM) | 16 µg/mL (≈ 32.3 µM) | 8 µg/mL (≈ 16.1 µM) | 32 µg/mL (≈ 64.5 µM) | 32 µg/mL (≈ 64.5 µM) | 16 µg/mL (≈ 32.3 µM) | > 32 µg/mL | 16 µg/mL (≈ 32.3 µM)
CC(C)CCC[C@@H](C)[C@H]1CC[C@H]2[C@@H]3C(=O)C[C@H]4C[C@H](NCCCn5ccnc5)CC[C@]4(C)[C@H]3CC[C@]12C | > 32 µg/mL | > 32 µg/mL | 8 µg/mL (≈ 15.7 µM) | 32 µg/mL (≈ 62.8 µM) | 32 µg/mL (≈ 62.8 µM) | 8 µg/mL (≈ 15.7 µM) | > 32 µg/mL | > 32 µg/mL | > 32 µg/mL | 8 µg/mL (≈ 15.7 µM) | 8 µg/mL (≈ 15.7 µM) | 8 µg/mL (≈ 15.7 µM) | 32 µg/mL (≈ 62.8 µM) | 16 µg/mL (≈ 31.4 µM) | 8 µg/mL (≈ 15.7 µM) | > 32 µg/mL | 16 µg/mL (≈ 31.4 µM)
CC(C)CCC[C@@H](C)[C@H]1CC[C@H]2[C@@H]3C(=O)C[C@H]4C[C@H](NCCn5ccnc5)CC[C@]4(C)[C@H]3CC[C@]12C | > 32 µg/mL | > 32 µg/mL | 8 µg/mL (≈ 16.1 µM) | 32 µg/mL (≈ 64.5 µM) | 8 µg/mL (≈ 16.1 µM) | 8 µg/mL (≈ 16.1 µM) | > 32 µg/mL | > 32 µg/mL | > 32 µg/mL | 32 µg/mL (≈ 64.5 µM) | 8 µg/mL (≈ 16.1 µM) | 8 µg/mL (≈ 16.1 µM) | 16 µg/mL (≈ 32.3 µM) | 32 µg/mL (≈ 64.5 µM) | > 32 µg/mL | > 32 µg/mL | 16 µg/mL (≈ 32.3 µM)
CC(C)CCC[C@@H](C)[C@H]1CC[C@H]2[C@@H]3[C@H](NCCc4cnc[nH]4)C[C@H]4C[C@H](NCCc5cnc[nH]5)CC[C@]4(C)[C@H]3CC[C@]12C [3ALPHA,7ALPHA-BIS[2-(5-IMIDAZOLYL)ETHYL]AMINO-5ALPHA-CHOLESTANE] | > 32 µg/mL | > 32 µg/mL | 8 µg/mL (≈ 13.5 µM) | > 32 µg/mL | 8 µg/mL (≈ 13.5 µM) | 16 µg/mL (≈ 27.1 µM) | > 32 µg/mL | > 32 µg/mL | > 32 µg/mL | > 32 µg/mL | 8 µg/mL (≈ 13.5 µM) | 4 µg/mL (≈ 6.77 µM) | 8 µg/mL (≈ 13.5 µM) | 32 µg/mL (≈ 54.2 µM) | 8 µg/mL (≈ 13.5 µM) | > 32 µg/mL | 8 µg/mL (≈ 13.5 µM)
Cc1onc(-c2ccccc2)c1C(=O)N[C@@H]1C(=O)N2[C@@H]1SC(C)(C)[C@@H]2C(=O)O [OXACILLIN] | > 32 µg/mL | > 32 µg/mL | 0.5 µg/mL (≈ 1.25 µM) | > 32 µg/mL | 32 µg/mL (≈ 79.7 µM) | 0.03 µg/mL (≈ 0.0747 µM) | > 32 µg/mL | > 32 µg/mL | > 32 µg/mL | 16 µg/mL (≈ 39.9 µM) | 0.25 µg/mL (≈ 0.623 µM) | 0.25 µg/mL (≈ 0.623 µM) | > 32 µg/mL | > 32 µg/mL | 4 µg/mL (≈ 9.96 µM) | > 32 µg/mL | > 32 µg/mL
CN[C@H](CC(C)C)C(=O)N[C@H]1C(=O)N[C@@H](CC(N)=O)C(=O)N[C@H]2C(=O)N[C@H]3C(=O)N[C@H](C(=O)N[C@H](C(=O)O)c4cc(O)cc(O)c4-c4cc3ccc4O)[C@H](O)c3ccc(c(Cl)c3)Oc3cc2cc(c3O[C@@H]2O[C@H](CO)[C@@H](O)[C@H](O)[C@H]2O[C@H]2C[C@](C)(N)[C@H](O)[C@H](C)O2)Oc2ccc(cc2Cl)[C@H]1O [VANCOMYCIN] | > 32 µg/mL | > 32 µg/mL |  | > 32 µg/mL | 2 µg/mL (≈ 1.38 µM) | 1 µg/mL (≈ 0.69 µM) | > 32 µg/mL | > 32 µg/mL | > 32 µg/mL | 2 µg/mL (≈ 1.38 µM) |  |  |  | > 32 µg/mL |  | > 32 µg/mL | 
CC(C)CCC[C@@H](C)[C@H]1CC[C@H]2[C@@H]3[C@H](NCCn4ccnc4)C[C@H]4C[C@H](NCCn5ccnc5)CC[C@]4(C)[C@H]3CC[C@]12C | > 32 µg/mL | > 32 µg/mL | 4 µg/mL (≈ 6.77 µM) | 32 µg/mL (≈ 54.2 µM) | 16 µg/mL (≈ 27.1 µM) | 4 µg/mL (≈ 6.77 µM) | > 32 µg/mL | > 32 µg/mL | > 32 µg/mL | 8 µg/mL (≈ 13.5 µM) | 8 µg/mL (≈ 13.5 µM) | 4 µg/mL (≈ 6.77 µM) | 16 µg/mL (≈ 27.1 µM) | 16 µg/mL (≈ 27.1 µM) | 4 µg/mL (≈ 6.77 µM) | > 32 µg/mL | 16 µg/mL (≈ 27.1 µM)
CC(C)CCC[C@@H](C)[C@H]1CC[C@H]2[C@@H]3[C@H](NCCc4ccccn4)C[C@H]4C[C@H](NCCc5ccccn5)CC[C@]4(C)[C@H]3CC[C@]12C | > 32 µg/mL | > 32 µg/mL | 8 µg/mL (≈ 13.1 µM) | 8 µg/mL (≈ 13.1 µM) | 16 µg/mL (≈ 26.1 µM) | 8 µg/mL (≈ 13.1 µM) | > 32 µg/mL | > 32 µg/mL | > 32 µg/mL | 8 µg/mL (≈ 13.1 µM) | 8 µg/mL (≈ 13.1 µM) | 8 µg/mL (≈ 13.1 µM) | 8 µg/mL (≈ 13.1 µM) | 32 µg/mL (≈ 52.2 µM) | 16 µg/mL (≈ 26.1 µM) | > 32 µg/mL | 8 µg/mL (≈ 13.1 µM)
CC(C)CCC[C@@H](C)[C@H]1CC[C@H]2[C@@H]3C(=O)C[C@H]4C[C@H](NCCc5ccccn5)CC[C@]4(C)[C@H]3CC[C@]12C | > 32 µg/mL | > 32 µg/mL | 8 µg/mL (≈ 15.8 µM) | 32 µg/mL (≈ 63.1 µM) | 16 µg/mL (≈ 31.6 µM) | 32 µg/mL (≈ 63.1 µM) | > 32 µg/mL | > 32 µg/mL | > 32 µg/mL | 32 µg/mL (≈ 63.1 µM) | 8 µg/mL (≈ 15.8 µM) | 8 µg/mL (≈ 15.8 µM) | > 32 µg/mL | > 32 µg/mL | 32 µg/mL (≈ 63.1 µM) | > 32 µg/mL | 16 µg/mL (≈ 31.6 µM)
CC(C)CCC[C@@H](C)[C@H]1CC[C@H]2[C@@H]3[C@H](NCc4ccccn4)C[C@H]4C[C@H](NCc5ccccn5)CC[C@]4(C)[C@H]3CC[C@]12C | > 32 µg/mL | > 32 µg/mL | 2 µg/mL (≈ 3.42 µM) | 2 µg/mL (≈ 3.42 µM) | 4 µg/mL (≈ 6.84 µM) | 2 µg/mL (≈ 3.42 µM) | > 32 µg/mL | > 32 µg/mL | > 32 µg/mL | 2 µg/mL (≈ 3.42 µM) | 2 µg/mL (≈ 3.42 µM) | 2 µg/mL (≈ 3.42 µM) | 2 µg/mL (≈ 3.42 µM) | 8 µg/mL (≈ 13.7 µM) | 2 µg/mL (≈ 3.42 µM) | > 32 µg/mL | 1 µg/mL (≈ 1.71 µM)
CC(C)CCC[C@@H](C)[C@H]1CC[C@H]2[C@@H]3C(=O)C[C@H]4C[C@H](NCc5ccccn5)CC[C@]4(C)[C@H]3CC[C@]12C | > 32 µg/mL | > 32 µg/mL | 4 µg/mL (≈ 8.12 µM) | 32 µg/mL (≈ 64.9 µM) | 8 µg/mL (≈ 16.2 µM) | 8 µg/mL (≈ 16.2 µM) | > 32 µg/mL | > 32 µg/mL | > 32 µg/mL | 4 µg/mL (≈ 8.12 µM) | 4 µg/mL (≈ 8.12 µM) | 2 µg/mL (≈ 4.06 µM) | 32 µg/mL (≈ 64.9 µM) | 16 µg/mL (≈ 32.5 µM) | 32 µg/mL (≈ 64.9 µM) | > 32 µg/mL | 4 µg/mL (≈ 8.12 µM)

Source: ChEMBL document CHEMBL2407054, “Synthesis and antimicrobial activity of imidazole and pyridine appended cholestane-based conjugates” (2013)
